In patent US20090076201A1, “(METH) ACRYLOYLOXYTETRAHYDROFURANS AND PROCESS FOR PRODUCTION THEREOF” (Mitsubishi Chemical Corporation, priority 2005, published 2009):

Experiment: Solubility test in heptane and aqueous solvents at 26° C.
Details: grams of solute dissolved in 100 g of solvent
Description: A solubility test of erythritan monomethacrylate (HOTHFMA) in aqueous solvents shown in the following table was carried out at a temperature of 26° C. In this connection, for the purpose of comparison, data on tetrahydrofurfuryl methacrylate (TFMA) and α-methacryloyl-γ-butyrolactone (GBLMA) are also shown. The numeric values in the table represent grams of individual solutes dissolved in 100 g of each solvent.

Solubility (26° C.) in H2O (solvent H2O): >395 g/100 g solv. | Solubility (26° C.) in H2O/MeOH 4/1 (wt) (solvent H2O/MeOH 4/1 (wt)): >353 g/100 g solv. | Solubility (26° C.) in Heptane (solvent heptane): 1.74 g/100 g solv.
SMILES: C=C(C)C(=O)OC1COCC1O (stereo not drawn) [HOTHFMA, 3-methacryloyloxy-4-hydroxytetrahydrofuran]
